In publication PMC7377474, “Preclinical characterization of CPL302-253, a selective inhibitor of PI3Kδ, as the candidate for the inhalatory treatment and prevention of Asthma” (PLoS ONE, 2020):
Where “and” joins values, the source holds several entries; their conditions need not be identical. Equal values may be shown once.

What was measured:
PIK3CA(H1047L) = target: T1, PIK3CA(H1047L) (Homo sapiens, UniProt P42336, H1047L); experiment: KINOMEScan single concentration; assay type: binding; settings: 1 μM
T1 construct: purchased Discoverex (KINOMEscan service)
T1 sequence (P42336 whole entry H1047L): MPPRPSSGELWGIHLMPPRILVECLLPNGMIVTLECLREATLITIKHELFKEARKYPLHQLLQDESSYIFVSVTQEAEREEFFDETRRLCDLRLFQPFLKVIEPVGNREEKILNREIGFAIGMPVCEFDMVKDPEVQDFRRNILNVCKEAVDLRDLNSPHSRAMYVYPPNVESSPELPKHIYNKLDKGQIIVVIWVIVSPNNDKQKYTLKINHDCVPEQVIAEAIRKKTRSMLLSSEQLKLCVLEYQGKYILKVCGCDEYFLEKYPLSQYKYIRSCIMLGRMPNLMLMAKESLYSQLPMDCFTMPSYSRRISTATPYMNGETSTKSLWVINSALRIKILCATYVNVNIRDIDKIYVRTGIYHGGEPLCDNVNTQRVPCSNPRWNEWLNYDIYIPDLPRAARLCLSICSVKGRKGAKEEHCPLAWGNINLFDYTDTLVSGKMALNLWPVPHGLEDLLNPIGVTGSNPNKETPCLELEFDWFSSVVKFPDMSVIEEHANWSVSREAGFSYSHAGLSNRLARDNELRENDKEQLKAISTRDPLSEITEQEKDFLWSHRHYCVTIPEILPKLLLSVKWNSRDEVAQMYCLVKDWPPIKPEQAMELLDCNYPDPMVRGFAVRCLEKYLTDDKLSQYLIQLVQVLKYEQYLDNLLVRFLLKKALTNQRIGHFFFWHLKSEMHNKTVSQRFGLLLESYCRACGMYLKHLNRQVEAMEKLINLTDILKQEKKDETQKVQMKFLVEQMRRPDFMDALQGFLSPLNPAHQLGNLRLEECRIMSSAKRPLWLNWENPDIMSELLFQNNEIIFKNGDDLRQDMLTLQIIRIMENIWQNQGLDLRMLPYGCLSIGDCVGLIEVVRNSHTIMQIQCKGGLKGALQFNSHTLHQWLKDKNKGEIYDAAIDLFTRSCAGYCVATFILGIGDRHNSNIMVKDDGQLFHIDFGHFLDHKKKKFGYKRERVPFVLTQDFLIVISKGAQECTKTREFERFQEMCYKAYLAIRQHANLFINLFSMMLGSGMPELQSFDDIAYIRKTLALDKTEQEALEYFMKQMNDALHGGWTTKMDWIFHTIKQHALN
Protocol: (§1) The inhibitor-kinase binding affinity was assessed in KINOMEscan™ assay (Discoverex) according to service provider’s protocol. In brief, in this binding assay the studied compound in solution is incubated with DNA-tagged kinase and kinase active-site directed ligand bound to the beads. The compound competes for binding to kinase with the immobilized ligand. After incubation beads are removed from the solution and kinase bound to ligand is quantified by qPCR. The strength of compound binding is determined based on its ability to block kinase-ligand binding. 11-point 3-fold serial dilution of CPL302-253 was used in order to determine its binding constants (Kd) against different isotypes of class I PI3K. The single concentration of CPL302-253 was used in order to determine its specificity in abroad panel of 468 human kinases. The measure of compounds affinity to each kinase in the panel was the percentage of kinase activity inhibition by tested ligand in comparison to the control.

PIK3CA(I800L) = target: T2, PIK3CA(I800L) (Homo sapiens, UniProt P42336, I800L); experiment: KINOMEScan single concentration; assay type: binding; settings: 1 μM
T2 construct: purchased Discoverex (KINOMEscan service)
T2 sequence (P42336 whole entry I800L): as the sequence (P42336 whole entry H1047L) above, with I800L, L1047H counted along it
Protocol: as §1

PIK3CA = target: T3, PIK3CA (Homo sapiens, UniProt P42336); experiment: KINOMEScan single concentration; assay type: binding; settings: 1 μM
T3 construct: purchased Discoverex (KINOMEscan service)
T3 sequence (P42336 whole entry): as the sequence (P42336 whole entry H1047L) above, with L1047H counted along it
Protocol: as §1

PIK3CG = target: T4, PIK3CG (Homo sapiens, UniProt P48736); experiment: KINOMEScan single concentration; assay type: binding; settings: 1 μM
T4 construct: purchased Discoverex (KINOMEscan service)
Protocol: as §1

MEK5 = target: T5, MEK5 (Homo sapiens, UniProt Q13163); experiment: KINOMEScan single concentration; assay type: binding; settings: 1 μM
T5 construct: purchased Discoverex (KINOMEscan service)
T5 sequence (Q13163 whole entry): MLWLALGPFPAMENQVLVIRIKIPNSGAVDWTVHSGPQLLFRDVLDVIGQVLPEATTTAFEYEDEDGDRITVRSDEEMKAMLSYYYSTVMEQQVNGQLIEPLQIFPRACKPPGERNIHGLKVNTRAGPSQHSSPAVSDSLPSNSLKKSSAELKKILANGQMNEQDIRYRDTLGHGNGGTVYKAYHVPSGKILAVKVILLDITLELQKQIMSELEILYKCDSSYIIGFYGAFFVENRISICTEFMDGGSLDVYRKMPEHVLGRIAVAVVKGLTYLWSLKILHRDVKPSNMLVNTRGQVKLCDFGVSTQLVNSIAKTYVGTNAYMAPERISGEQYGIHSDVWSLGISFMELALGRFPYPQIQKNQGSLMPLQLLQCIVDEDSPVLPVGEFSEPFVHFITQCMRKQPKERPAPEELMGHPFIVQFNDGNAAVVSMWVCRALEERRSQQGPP
Protocol: as §1

ABL1-nonphosphorylated = target: T6, ABL1-nonphosphorylated (Homo sapiens, UniProt P00519); experiment: KINOMEScan single concentration; assay type: binding; settings: 1 μM
T6 construct: purchased Discoverex (KINOMEscan service)
T6 sequence (P00519 whole entry): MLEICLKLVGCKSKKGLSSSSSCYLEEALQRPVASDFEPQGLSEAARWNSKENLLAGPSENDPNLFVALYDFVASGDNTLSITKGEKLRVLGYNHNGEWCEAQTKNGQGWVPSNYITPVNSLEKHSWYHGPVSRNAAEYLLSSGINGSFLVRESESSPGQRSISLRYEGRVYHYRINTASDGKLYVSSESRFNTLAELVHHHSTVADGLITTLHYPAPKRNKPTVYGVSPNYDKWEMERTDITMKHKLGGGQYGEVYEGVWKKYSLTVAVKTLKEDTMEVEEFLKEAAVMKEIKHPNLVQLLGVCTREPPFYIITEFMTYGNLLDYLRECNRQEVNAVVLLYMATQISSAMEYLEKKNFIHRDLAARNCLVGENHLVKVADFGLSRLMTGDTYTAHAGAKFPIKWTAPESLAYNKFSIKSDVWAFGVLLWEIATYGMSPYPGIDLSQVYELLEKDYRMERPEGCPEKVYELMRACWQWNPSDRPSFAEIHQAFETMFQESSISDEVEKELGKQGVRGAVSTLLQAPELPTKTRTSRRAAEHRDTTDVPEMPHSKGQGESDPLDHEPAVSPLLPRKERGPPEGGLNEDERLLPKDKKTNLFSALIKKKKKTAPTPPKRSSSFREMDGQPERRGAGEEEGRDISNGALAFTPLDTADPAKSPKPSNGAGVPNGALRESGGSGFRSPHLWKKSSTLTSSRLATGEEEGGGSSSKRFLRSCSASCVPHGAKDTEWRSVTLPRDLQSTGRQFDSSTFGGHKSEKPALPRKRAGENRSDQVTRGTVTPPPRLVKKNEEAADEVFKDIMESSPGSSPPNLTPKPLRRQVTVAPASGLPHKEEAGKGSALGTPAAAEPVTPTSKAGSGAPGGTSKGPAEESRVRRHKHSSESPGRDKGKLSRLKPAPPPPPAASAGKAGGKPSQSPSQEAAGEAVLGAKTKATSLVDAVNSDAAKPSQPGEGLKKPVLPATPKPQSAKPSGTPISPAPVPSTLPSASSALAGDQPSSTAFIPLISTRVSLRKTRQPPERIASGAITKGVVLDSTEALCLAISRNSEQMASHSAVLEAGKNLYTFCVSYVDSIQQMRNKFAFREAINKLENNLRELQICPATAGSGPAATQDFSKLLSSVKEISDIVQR
Protocol: as §1

PIK3CA(E542K) = target: T7, PIK3CA(E542K) (Homo sapiens, UniProt P42336, E542K); experiment: KINOMEScan single concentration; assay type: binding; settings: 1 μM
T7 construct: purchased Discoverex (KINOMEscan service)
T7 sequence (P42336 whole entry E542K): as the sequence (P42336 whole entry H1047L) above, with E542K, L1047H counted along it
Protocol: as §1

PIK3CA(C420R) = target: T8, PIK3CA(C420R) (Homo sapiens, UniProt P42336, C420R); experiment: KINOMEScan single concentration; assay type: binding; settings: 1 μM
T8 construct: purchased Discoverex (KINOMEscan service)
T8 sequence (P42336 whole entry C420R): as the sequence (P42336 whole entry H1047L) above, with C420R, L1047H counted along it
Protocol: as §1

PIK3CA(E545K) = target: T9, PIK3CA(E545K) (Homo sapiens, UniProt P42336, E545K); experiment: KINOMEScan single concentration; assay type: binding; settings: 1 μM
T9 construct: purchased Discoverex (KINOMEscan service)
T9 sequence (P42336 whole entry E545K): as the sequence (P42336 whole entry H1047L) above, with E545K, L1047H counted along it
Protocol: as §1

ULK2 = target: T10, ULK2 (Homo sapiens, UniProt Q8IYT8); experiment: KINOMEScan single concentration; assay type: binding; settings: 1 μM
T10 construct: purchased Discoverex (KINOMEscan service)
T10 sequence (Q8IYT8 whole entry): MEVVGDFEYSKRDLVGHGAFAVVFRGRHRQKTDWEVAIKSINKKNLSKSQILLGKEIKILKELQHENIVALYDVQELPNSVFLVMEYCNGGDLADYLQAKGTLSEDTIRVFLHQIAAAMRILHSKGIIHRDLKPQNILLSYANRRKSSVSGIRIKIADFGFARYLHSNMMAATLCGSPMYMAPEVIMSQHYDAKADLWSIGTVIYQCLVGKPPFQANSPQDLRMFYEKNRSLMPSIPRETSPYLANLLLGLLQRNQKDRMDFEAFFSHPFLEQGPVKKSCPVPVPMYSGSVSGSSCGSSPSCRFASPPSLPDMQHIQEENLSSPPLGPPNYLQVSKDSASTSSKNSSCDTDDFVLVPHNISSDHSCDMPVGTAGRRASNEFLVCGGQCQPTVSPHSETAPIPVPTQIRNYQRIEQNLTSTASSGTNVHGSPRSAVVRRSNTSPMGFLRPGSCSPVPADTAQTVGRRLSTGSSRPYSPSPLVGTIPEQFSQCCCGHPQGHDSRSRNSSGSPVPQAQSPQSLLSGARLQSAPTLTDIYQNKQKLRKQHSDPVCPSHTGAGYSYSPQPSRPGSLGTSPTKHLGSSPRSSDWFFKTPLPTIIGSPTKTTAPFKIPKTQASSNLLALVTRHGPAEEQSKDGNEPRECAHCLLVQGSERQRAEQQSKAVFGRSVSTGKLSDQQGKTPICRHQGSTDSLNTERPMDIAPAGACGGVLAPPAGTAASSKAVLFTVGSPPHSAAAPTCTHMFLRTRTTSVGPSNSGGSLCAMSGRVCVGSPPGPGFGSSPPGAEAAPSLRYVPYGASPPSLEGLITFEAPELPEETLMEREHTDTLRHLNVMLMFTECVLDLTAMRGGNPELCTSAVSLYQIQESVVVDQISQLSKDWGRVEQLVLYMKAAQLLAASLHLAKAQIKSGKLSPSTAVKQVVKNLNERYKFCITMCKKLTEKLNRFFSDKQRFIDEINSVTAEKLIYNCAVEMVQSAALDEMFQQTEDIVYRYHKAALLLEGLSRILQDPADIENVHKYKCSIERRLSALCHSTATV
Protocol: as §1

PIK3CD = target: T11, PIK3CD (Homo sapiens, UniProt O00329); experiment: KINOMEScan single concentration; assay type: binding; settings: 1 μM
T11 construct: purchased Discoverex (KINOMEscan service)
T11 sequence (O00329 whole entry): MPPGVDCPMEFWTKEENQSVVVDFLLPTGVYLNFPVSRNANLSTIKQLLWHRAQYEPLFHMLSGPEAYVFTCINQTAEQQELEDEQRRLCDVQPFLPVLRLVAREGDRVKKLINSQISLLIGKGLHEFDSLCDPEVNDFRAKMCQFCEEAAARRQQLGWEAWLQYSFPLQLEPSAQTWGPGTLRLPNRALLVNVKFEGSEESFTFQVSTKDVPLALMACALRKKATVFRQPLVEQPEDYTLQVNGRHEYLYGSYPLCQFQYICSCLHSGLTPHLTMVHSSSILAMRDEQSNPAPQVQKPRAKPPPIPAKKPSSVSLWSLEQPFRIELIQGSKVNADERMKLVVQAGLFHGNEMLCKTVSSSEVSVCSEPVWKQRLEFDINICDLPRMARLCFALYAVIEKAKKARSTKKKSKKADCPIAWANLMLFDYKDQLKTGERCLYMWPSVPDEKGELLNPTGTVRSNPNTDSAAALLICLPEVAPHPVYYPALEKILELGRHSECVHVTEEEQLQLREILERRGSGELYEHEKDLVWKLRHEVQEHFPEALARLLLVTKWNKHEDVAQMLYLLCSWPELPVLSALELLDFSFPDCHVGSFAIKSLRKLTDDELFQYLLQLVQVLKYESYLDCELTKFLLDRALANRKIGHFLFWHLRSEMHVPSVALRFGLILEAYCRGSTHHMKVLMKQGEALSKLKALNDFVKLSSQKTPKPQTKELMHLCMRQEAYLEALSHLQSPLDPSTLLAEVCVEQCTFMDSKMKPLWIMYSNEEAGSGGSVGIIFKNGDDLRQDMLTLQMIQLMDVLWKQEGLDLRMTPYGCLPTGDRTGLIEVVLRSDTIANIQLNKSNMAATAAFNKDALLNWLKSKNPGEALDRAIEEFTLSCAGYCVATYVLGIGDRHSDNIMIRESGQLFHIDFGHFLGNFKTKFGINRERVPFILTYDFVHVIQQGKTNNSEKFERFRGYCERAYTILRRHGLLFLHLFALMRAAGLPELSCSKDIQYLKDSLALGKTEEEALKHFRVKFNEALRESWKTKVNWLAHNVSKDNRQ
Protocol: as §1

neutrophils = experiment: Neutrophil ROS production; assay type: cell-based, human
Protocol: Neutrophils were isolated using EasySep Direct Human Neutrophil Isolation Kit (StemCell Technologies) from fresh whole blood of healthy donors according to manufacturer’s protocol. Cells were cultured in AIM V medium (Gibco). Cells were loaded for 30 min at 37°C in humidified incubator in the presence of 5% CO2 with DCFDA (2’,7’–dichlorofluorescein diacetate), a fluorescent ROS indicator. Subsequently neutrophils were treated for 15 min with CPL302-253 and dexamethasone. In the next step 20 ng/ml of human GM-CSF (StemCell Technologies) was added to prime cells. 15 min later 1 μg/ml LPS from E. coli O55:B5 (Sigma-Aldrich) was added to induce ROS generation. The ROS accumulation in the neutrophils was assessed on FACSCalibur 2 h after LPS stimulation.

[1] = system: human primary cell cultures and co-cultures; assay type: cell-based
Protocol: BioMap Profiling study was performed by DiscovereX according to service provider’s protocol. In brief cultures or co-cultures of human primary cells were treated with sets of stimulators specific for cell subsets. […] The expression of biomarkers specific for each system was measured by ELISA and other techniques. The results are shown as log-transformed ratio of the biomarker readouts for the drug-treated sample to vehicle controls. The grey area parallel to the x-axis indicates the 95% significance region calculated based on historical vehicle controls. […]

in vitro = assay type: cell-based; settings: human
Protocol: (§2) The study was performed by Cyprotex according to service provider’s protocol. In brief NHBE cells were plated on 96-well plate. The cells were dosed with test compound at 0.0457, 0.137, 0.412, 1.24, 3.7, 11.1, 33.3, 100 μM and incubated for 48 h. The cells were loaded with dye or antibody relevant for each health marker and scanned using fluorescent cell imager. The following parameters were studied: cell count, nuclear size, DNA structure, mitochondrial mass, mitochondrial membrane potential, oxidative stress, glutathione content. The baseline for each parameter was determined based on vehicle control sample. The software calculates the percentage of cells that are low or high responders (depending on the biological significance of a particular readout). The vehicle control wells are then used to determine significance limits for wells that have a greater than expected fraction of low or high responders. The minimum effective concentration was determined from the lowest concentration whose mean value exceeds the significance level and provided either a clear dose-response relationship or at least two consecutive concentration points past the significance level.

[2] = system: Normal Human Bronchial Epithelial (NHBE) cells; experiment: in vitro; assay type: cell-based; settings: 48 h
Protocol: as §2

## CC(C)(C)N1CCN(Cc2cc3nc(-c4cncc5[nH]ccc45)cc(N4CCOCC4)n3n2)CC1 [CPL302-253]
PIK3CA(H1047L)
  Remaining binding (%): 92%
PIK3CA(I800L)
  Remaining binding (%): 44%
PIK3CA
  Remaining binding (%): 96%
PIK3CG
  Remaining binding (%): 94%
MEK5
  Remaining binding (%): 35%
ABL1-nonphosphorylated
  Remaining binding (%): 36%
PIK3CA(E542K)
  Remaining binding (%): 82%
PIK3CA(C420R)
  Remaining binding (%): 12%
PIK3CA(E545K)
  Remaining binding (%): 54%
ULK2
  Remaining binding (%): 33%
PIK3CD
  Remaining binding (%): 1.1%
neutrophils; GM-CSF 20 ng/ml and LPS 1 μg/ml, 2 h
  neutrophils stained positively by ROS fluorescent indicator (Fig 4C), single replicates: 52 and 10 and 17 and 22 and 2 and 9
neutrophils; GMCSF/LPS stimulation
  ROS accumulation in neutrophils: reduced ROS accumulation
[1]
  cytotoxic effects in BioMap culture systems: no cytotoxic effects observed
[1]; systems other than BT, except PAI-1 in KF3CT
  impact on other studied BioMAP systems: no impact
In vitro
  AC50 at 48 h: > 100 µM
[2]
  AC50: > 100 µM
  MEC Cell count: 50.6 µM
  MEC DNA structure: 24.4 µM
  MEC Glutathione content: 10.6 µM
  MEC Mitochondrial mass: 20.8 µM
  MEC Mitochondrial membrane potential: 22.8 µM
  MEC Nuclear size: 75.3 µM
  MEC Oxidative stress: 16.1 µM
  lowest concentration influencing any cell health parameter: ≥ 10 µM
